Data as given in ChEMBL document CHEMBL2384940, “Discovery of (R)-(2-fluoro-4-((-4-methoxyphenyl)ethynyl)phenyl) (3-hydroxypiperidin-1-yl)methanone (ML337), an mGlu3 selective and CNS penetrant negative allosteric modulator (NAM)” (J Med Chem, 2013).
Converted amounts (≈) assume the structure as drawn. Each block holds one compound with its values, some of them ahead of it. The source made the active and inactive calls. No cut-off for these calls is given here.

Key:
[1] = molecular target: Metabotropic glutamate receptor 3 (Rattus norvegicus, UniProt P31422); assay: Negative allosteric modulation of rat mGlu3 receptor transfected in human TREX cells assessed as inhibition of glutamate-induced calcium mobilization after 2.5 mins; type: functional, cell-based
[2] = molecular target: Metabotropic glutamate receptor 3 (Rattus norvegicus) (UniProt P31422); assay: Negative allosteric modulation of rat mGlu3 receptor transfected in human TREX cells after 2.5 mins by calcium mobilization assay relative to glutamate; type: functional, cell-based; parameters: concentration or dose not given beside the values
[3] = molecular target: Metabotropic glutamate receptor 2 (Rattus norvegicus, UniProt P31421); assay: Negative allosteric modulation of rat mGlu2 receptor transfected in HEK293 cells assessed as inhibition of glutamate-induced calcium mobilization after 2.5 mins; type: functional, cell-based
[4] = molecular target: Metabotropic glutamate receptor 6 (Homo sapiens) (UniProt O15303); assay: Negative allosteric modulation of mGlu6 receptor (unknown origin) up to 30 uM
[5] = molecular target: Sodium-dependent dopamine transporter (Homo sapiens) (UniProt Q01959); assay: Binding affinity to human DAT at 10 uM by radioligand displacement assay relative to control
[6] = tested on: Plasma; assay: Plasma protein binding in mouse at 5 uM after 4 hrs by LC/MS/MS analysis; type: ADME, cell-free
[7] = Solubility of the compound in PBS; type: physicochemical; conditions: buffer
[8] = molecular target: T1, Cytochrome P450 1A2 (Homo sapiens, UniProt P05177); assay: Inhibition of CYP1A2 in human liver microsomes using phenacetin as substrate incubated for 15 mins prior to NADPH addition measured after 8 mins by LC/MS/MS analysis; type: ADME, Microsome
T1 sequence (P05177 whole entry): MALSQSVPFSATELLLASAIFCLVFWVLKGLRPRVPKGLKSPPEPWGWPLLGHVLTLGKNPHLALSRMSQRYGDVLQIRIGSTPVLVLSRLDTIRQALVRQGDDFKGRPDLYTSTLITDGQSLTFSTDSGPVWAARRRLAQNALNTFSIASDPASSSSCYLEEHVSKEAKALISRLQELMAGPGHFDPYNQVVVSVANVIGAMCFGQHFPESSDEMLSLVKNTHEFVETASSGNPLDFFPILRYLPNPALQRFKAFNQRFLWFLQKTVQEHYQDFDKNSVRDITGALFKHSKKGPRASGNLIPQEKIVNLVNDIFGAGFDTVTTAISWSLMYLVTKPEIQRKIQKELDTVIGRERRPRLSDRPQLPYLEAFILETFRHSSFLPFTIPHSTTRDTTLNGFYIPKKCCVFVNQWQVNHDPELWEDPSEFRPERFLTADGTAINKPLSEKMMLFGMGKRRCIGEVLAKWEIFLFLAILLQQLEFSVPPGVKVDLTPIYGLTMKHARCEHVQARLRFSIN

[9] = tested on: Plasma; assay: Fraction unbound in mouse plasma at 5 uM after 4 hrs by LC/MS/MS analysis; type: ADME, cell-free
[10] = molecular target: Metabotropic glutamate receptor 1 (Homo sapiens) (UniProt Q13255); assay: Negative allosteric modulation of mGlu1 receptor (unknown origin) up to 30 uM
[11] = molecular target: Metabotropic glutamate receptor 8 (Homo sapiens) (UniProt O00222); assay: Negative allosteric modulation of mGlu8 receptor (unknown origin) up to 30 uM
[12] = molecular target: Cytochrome P450 2D6 (Homo sapiens, UniProt P10635); assay: Inhibition of CYP2D6 in human liver microsomes using dextromethorphan as substrate incubated for 15 mins prior to NADPH addition measured after 8 mins by LC/MS/MS analysis; type: ADME, Microsome
[13] = molecular target: Metabotropic glutamate receptor 3 (Rattus norvegicus) (UniProt P31422); assay: Negative allosteric modulation of rat mGlu3 receptor transfected in human TREX cells assessed as inhibition of glutamate/LY379268-induced calcium mobilization; type: functional, cell-based
[14] = tested on: Plasma; assay: Plasma protein binding in human at 5 uM after 4 hrs by LC/MS/MS analysis; type: ADME, cell-free
[15] = tested on: Liver microsomes; assay: Metabolic stability in human liver microsomes at 1 uM; type: ADME, Microsome
[16] = molecular target: Metabotropic glutamate receptor 3 (Rattus norvegicus) (UniProt P31422); assay: Negative allosteric modulation of rat mGlu3 receptor transfected in human TREX cells assessed as non-competitive decrease in glutamate EC80; type: cell-based
[17] = molecular target: Metabotropic glutamate receptor 5 (Homo sapiens) (UniProt P41594); assay: Negative allosteric modulation of mGlu5 receptor (unknown origin) up to 30 uM
[18] = molecular target: 5-hydroxytryptamine receptor 2B (Homo sapiens) (UniProt P41595); assay: Binding affinity to human 5-HT2B receptor at 10 uM by radioligand displacement assay relative to control
[19] = molecular target: Metabotropic glutamate receptor 7 (Homo sapiens) (UniProt Q14831); assay: Negative allosteric modulation of mGlu7 receptor (unknown origin) up to 30 uM
[20] = molecular target: Cytochrome P450 2C9 (Homo sapiens, UniProt P11712); assay: Inhibition of CYP2C9 in human liver microsomes using diclofenac as substrate incubated for 15 mins prior to NADPH addition measured after 8 mins by LC/MS/MS analysis; type: ADME, Microsome
[21] = tested on: Plasma; assay: Fraction unbound in rat plasma at 5 uM after 4 hrs by LC/MS/MS analysis; type: ADME, cell-free
[22] = tested on: Plasma; assay: Fraction unbound in human plasma at 5 uM after 4 hrs by LC/MS/MS analysis; type: ADME, cell-free
[23] = molecular target: Metabotropic glutamate receptor 4 (Homo sapiens) (UniProt Q14833); assay: Negative allosteric modulation of mGlu4 receptor (unknown origin) up to 30 uM
[24] = species on record: Homo sapiens; assay: Selectivity ratio of IC50 for human mGlu2 receptor to IC50 for human mGlu3 receptor

Sequence of Metabotropic glutamate receptor 2 (P31421 whole entry): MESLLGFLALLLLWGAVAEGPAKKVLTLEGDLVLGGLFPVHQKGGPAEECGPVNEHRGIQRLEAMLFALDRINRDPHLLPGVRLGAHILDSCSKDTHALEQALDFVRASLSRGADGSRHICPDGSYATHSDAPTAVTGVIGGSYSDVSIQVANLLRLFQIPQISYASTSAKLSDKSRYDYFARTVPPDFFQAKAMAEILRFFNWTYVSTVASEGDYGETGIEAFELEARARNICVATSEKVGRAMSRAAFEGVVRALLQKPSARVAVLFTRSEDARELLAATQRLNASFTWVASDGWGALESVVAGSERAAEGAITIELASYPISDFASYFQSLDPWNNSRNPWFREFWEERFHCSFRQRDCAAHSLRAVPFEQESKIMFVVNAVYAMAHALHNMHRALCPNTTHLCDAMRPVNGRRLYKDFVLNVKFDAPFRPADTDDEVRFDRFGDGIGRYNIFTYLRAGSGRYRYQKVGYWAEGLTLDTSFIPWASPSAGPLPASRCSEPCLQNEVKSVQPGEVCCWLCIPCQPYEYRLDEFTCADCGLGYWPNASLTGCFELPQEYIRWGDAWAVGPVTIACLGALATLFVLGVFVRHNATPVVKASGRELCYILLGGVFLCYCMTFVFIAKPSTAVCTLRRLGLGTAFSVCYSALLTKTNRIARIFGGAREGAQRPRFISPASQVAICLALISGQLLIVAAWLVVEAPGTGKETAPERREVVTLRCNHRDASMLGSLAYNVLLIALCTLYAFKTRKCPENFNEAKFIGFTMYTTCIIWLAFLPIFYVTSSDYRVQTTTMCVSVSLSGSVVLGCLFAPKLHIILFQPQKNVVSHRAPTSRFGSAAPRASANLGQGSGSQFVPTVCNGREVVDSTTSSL
Sequence of Metabotropic glutamate receptor 3 (P31422 whole entry): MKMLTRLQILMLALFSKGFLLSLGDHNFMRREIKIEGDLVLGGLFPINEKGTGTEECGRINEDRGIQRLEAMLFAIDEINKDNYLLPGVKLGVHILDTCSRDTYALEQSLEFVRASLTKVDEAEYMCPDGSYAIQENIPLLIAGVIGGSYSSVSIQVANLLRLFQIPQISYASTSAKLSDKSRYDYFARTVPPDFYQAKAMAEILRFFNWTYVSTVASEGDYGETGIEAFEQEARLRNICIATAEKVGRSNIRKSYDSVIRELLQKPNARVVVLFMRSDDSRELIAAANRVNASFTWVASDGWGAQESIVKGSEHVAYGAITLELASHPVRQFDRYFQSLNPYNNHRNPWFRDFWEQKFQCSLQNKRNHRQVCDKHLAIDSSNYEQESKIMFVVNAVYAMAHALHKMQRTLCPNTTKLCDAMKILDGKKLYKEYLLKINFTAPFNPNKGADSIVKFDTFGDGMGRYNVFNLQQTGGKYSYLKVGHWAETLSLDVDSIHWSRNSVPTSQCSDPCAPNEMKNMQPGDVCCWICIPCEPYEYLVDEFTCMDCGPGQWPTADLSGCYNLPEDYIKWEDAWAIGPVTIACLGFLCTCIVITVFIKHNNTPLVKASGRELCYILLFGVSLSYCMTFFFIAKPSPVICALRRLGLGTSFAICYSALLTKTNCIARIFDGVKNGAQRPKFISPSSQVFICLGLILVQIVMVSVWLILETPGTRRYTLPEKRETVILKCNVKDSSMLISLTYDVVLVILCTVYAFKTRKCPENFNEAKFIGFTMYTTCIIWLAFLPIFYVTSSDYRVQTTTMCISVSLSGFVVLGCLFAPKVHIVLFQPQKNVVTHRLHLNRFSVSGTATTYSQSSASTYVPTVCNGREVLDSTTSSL
Sequence of Metabotropic glutamate receptor 3 (Rattus norvegicus) (P31422 23-879 limits assumed): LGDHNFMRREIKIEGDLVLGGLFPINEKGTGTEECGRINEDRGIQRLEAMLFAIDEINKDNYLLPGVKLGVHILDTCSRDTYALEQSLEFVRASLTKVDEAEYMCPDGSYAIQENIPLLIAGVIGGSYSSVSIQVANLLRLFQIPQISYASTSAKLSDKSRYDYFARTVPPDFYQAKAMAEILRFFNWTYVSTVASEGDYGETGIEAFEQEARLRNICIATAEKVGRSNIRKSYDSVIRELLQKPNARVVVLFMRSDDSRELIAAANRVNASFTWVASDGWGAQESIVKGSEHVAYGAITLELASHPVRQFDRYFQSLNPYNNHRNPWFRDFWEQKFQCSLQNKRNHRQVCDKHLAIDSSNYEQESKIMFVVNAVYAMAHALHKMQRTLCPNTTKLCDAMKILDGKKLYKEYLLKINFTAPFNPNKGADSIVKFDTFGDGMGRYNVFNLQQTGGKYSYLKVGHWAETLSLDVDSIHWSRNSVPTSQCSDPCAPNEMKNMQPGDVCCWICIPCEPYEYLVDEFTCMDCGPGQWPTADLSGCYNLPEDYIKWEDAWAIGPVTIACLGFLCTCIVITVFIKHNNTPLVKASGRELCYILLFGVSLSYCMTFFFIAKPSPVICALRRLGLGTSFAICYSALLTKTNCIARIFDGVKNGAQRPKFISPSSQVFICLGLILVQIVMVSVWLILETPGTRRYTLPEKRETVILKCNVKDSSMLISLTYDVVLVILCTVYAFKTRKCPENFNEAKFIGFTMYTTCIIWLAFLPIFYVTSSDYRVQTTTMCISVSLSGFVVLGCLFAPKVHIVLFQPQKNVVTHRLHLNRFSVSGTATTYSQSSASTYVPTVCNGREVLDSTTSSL
Sequence of Sodium-dependent dopamine transporter (Homo sapiens) (Q01959 whole entry): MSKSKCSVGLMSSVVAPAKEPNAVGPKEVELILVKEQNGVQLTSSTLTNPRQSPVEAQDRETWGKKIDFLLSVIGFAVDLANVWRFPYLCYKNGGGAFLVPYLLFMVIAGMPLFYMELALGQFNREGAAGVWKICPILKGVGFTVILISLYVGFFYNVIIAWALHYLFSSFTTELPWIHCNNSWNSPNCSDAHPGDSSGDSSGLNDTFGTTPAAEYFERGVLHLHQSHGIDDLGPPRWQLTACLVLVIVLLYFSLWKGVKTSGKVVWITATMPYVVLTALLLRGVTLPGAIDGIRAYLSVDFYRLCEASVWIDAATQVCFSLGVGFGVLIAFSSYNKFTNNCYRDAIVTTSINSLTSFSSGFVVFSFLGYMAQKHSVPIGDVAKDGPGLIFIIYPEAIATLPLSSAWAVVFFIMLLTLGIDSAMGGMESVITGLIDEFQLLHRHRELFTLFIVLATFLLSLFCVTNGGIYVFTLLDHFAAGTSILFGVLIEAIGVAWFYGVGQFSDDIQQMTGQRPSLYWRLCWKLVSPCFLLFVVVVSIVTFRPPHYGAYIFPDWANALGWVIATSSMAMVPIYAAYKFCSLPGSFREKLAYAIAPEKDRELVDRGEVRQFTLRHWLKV
Sequence of Metabotropic glutamate receptor 7 (Homo sapiens) (Q14831 whole entry): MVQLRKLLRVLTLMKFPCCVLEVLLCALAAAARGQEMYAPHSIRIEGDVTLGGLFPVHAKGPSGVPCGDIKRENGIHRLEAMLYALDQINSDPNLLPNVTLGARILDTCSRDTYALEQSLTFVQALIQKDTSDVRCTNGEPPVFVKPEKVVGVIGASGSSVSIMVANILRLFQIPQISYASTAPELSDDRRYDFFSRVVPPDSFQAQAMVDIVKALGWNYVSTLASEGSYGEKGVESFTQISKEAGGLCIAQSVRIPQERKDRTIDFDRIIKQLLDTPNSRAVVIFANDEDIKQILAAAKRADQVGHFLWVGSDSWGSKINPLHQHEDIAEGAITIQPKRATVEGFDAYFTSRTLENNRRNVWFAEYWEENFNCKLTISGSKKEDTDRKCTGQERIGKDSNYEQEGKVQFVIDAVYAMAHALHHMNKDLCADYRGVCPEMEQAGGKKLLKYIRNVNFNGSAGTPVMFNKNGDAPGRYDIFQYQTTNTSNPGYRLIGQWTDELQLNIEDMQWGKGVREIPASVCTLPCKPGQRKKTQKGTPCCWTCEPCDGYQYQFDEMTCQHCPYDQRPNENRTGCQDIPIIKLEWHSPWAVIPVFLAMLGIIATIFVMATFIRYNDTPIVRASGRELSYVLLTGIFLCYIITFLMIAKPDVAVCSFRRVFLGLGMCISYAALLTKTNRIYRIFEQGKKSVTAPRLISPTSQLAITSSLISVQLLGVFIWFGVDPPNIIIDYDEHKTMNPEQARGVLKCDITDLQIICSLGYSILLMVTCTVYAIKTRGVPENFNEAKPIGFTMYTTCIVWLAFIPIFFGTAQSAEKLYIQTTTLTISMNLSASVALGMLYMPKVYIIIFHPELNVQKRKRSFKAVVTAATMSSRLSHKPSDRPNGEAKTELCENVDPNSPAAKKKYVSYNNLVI
Sequence of Metabotropic glutamate receptor 4 (Homo sapiens) (Q14833 whole entry): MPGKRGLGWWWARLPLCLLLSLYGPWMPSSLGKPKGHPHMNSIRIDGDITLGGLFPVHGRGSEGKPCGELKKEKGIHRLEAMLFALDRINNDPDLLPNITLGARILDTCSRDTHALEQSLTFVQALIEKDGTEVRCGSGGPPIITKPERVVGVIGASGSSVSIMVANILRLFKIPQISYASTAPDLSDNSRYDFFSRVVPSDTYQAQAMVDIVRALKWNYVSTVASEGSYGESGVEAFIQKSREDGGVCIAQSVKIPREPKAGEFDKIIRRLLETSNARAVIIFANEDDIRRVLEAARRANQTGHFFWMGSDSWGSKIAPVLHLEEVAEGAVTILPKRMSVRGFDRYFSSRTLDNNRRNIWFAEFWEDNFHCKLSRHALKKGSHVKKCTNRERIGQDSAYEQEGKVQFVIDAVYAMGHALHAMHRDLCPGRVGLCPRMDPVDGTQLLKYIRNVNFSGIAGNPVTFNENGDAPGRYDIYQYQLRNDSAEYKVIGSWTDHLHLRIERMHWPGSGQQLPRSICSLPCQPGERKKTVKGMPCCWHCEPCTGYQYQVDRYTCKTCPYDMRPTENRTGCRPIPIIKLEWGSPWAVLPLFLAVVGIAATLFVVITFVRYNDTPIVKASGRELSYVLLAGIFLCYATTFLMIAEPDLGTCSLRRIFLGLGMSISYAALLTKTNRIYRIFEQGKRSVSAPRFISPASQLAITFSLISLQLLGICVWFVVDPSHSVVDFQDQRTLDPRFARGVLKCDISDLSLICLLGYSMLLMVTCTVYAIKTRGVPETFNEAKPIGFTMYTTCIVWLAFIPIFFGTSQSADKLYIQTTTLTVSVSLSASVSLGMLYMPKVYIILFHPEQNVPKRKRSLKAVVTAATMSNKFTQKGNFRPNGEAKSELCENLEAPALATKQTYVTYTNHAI

IC50 ([1]; read-out: IC50): > 10 µM
Compound: COc1ccc(C#Cc2ccc(C(=O)N3CCC[C@@H](CO)C3)cc2)cn1

Activity [2]: 1.7%
IC50 ([1]; read-out: pIC50 (converted)): 5.5 µM
IC50 [3]: > 30 µM
Compound: COc1ccc(C#Cc2ccc(C(=O)N3CC4CCC(O)C4C3)cc2)cc1 (stereo unspecified)

Activity [2]: 0.4%
IC50 ([1]; read-out: IC50): 0.76 µM
IC50 [3]: > 30 µM
Compound: COc1ccc(C#Cc2ccc(C(=O)N3CCCC(O)C3)cc2)cc1 (racemic)

Activity [2]: 0%
IC50 ([1]; read-out: pIC50 (converted)): 5.5 µM
IC50 [3]: > 30 µM
Compound: COc1ccc(C#Cc2ccc(C(=O)N3CCCC(OC)C3)cc2)cc1 (stereo unspecified)

IC50 ([1]; read-out: IC50): > 10 µM
Compound: CC(C)Oc1ccc(C#Cc2ccc(C(=O)N3CCC[C@@H](CO)C3)cc2)cc1

IC50 ([1]; read-out: IC50): > 10 µM
Compound: O=C(c1ccc(C#Cc2ccc3c(c2)OCO3)cc1)N1CCC[C@@H](CO)C1

IC50 ([1]; read-out: IC50): > 10 µM
Compound: COc1ccc(C#Cc2ccc(C(=O)N3CCC[C@@H](CO)C3)cc2)c(F)c1F

IC50 ([1]; read-out: IC50): > 10 µM
Compound: O=C(c1ccc(C#Cc2ccc3c(c2)OCCO3)cc1)N1CCC[C@@H](CO)C1

IC50 ([1]; read-out: IC50): > 10 µM
Compound: COc1ccc(C#Cc2ccc(C(=O)N3CCC[C@@H](CO)C3)cc2)c(F)c1

Compound: COc1ccc(C#Cc2ccc(C(=O)N3CCC[C@@H](O)C3)c(F)c2)cc1
Activity [2]: 1.9%
IC50 ([1]; read-out: IC50): 0.593 µM
IC50 ([1]; read-out: pIC50 (converted)): 0.603 µM
IC50 [3]: > 30 µM
Activity [4]: inactive
inhibition [5]: 71%
PPB [6]: 97%
solubility [7]: 7.8 µM (≈ 2.76 µg/mL)
IC50 [8]: > 30 µM
Fu [9]: 0.027
Activity [10]: inactive
Activity [11]: inactive
IC50 [12]: > 30 µM
Activity [13]: Active
PPB [14]: 97%
Stability [15]: Unstable
Activity [16]: Active
Activity [17]: inactive
inhibition [18]: 74%
Activity [19]: inactive
IC50 [20]: > 30 µM
Fu [21]: 0.005
Fu [22]: 0.03
Activity [23]: inactive

IC50 ([1]; read-out: IC50): 0.31 µM
Compound: [2H]C([2H])([2H])Oc1ccc(C#Cc2ccc(C(=O)N3CCC[C@@H](O)C3)cc2)cc1

IC50 ([1]; read-out: IC50): > 10 µM
Compound: COc1ccc(-c2nnc(-c3ccc(C(=O)N4CCC[C@@H](CO)C4)cc3)o2)cc1

Activity [2]: 1.6%
IC50 ([1]; read-out: pIC50 (converted)): 7.59 µM
IC50 [3]: > 30 µM
Compound: COc1ccc(C#Cc2ccc(C(=O)NC(C)CO)cc2)cc1 (stereo unspecified)

IC50 ([1]; read-out: IC50): > 10 µM
Compound: CCOc1ccc(C#Cc2ccc(C(=O)N3CCC[C@@H](CO)C3)cc2)cc1

IC50 ([1]; read-out: IC50): > 10 µM
Compound: CSc1ccc(C#Cc2ccc(C(=O)N3CCC[C@@H](CO)C3)cc2)cc1

Activity [2]: 1.64%
IC50 ([1]; read-out: IC50): 0.456 µM
IC50 [3]: > 30 µM
Compound: COc1ccc(C#Cc2ccc(C(=O)N3CCC[C@@H](O)C3)cc2F)cc1

Activity [2]: -0.13%
IC50 ([1]; read-out: IC50): 0.711 µM
IC50 [3]: > 30 µM
Compound: COc1ccc(C#Cc2ccc(C(=O)N3CCCC(C)(O)C3)cc2)cc1 (stereo unspecified)

IC50 ([1]; read-out: IC50): > 10 µM
Compound: COc1ccc(C#Cc2ccc(C(=O)N3CCC[C@@H](CO)C3)cc2)cc1

IC50 ([1]; read-out: pIC50 (converted)): 27.5 µM
IC50 [3]: > 30 µM
Compound: COc1ccc(C#Cc2ccc(C(=O)N3CC[C@H](O)C3)cc2)cc1

Activity [2]: 1.7%
IC50 ([1]; read-out: IC50): 1.1 µM
IC50 [3]: > 30 µM
Compound: COc1ccc(C#Cc2ccc(C(=O)N3CCC[C@H](O)C3)cc2)cc1

Activity [2]: 0%
IC50 ([1]; read-out: pIC50 (converted)): 7.59 µM
IC50 [3]: > 30 µM
Compound: COc1ccc(C#Cc2ccc(C(=O)N3CCC(CO)C3)cc2)cc1 (stereo unspecified)

IC50 ([1]; read-out: IC50): > 10 µM
Compound: O=C(c1ccc(C#Cc2ccc(OC(F)(F)F)cc2)cc1)N1CCC[C@@H](CO)C1

Activity [2]: 0%
IC50 ([1]; read-out: pIC50 (converted)): 10.2 µM
IC50 [3]: > 30 µM
Compound: COc1ccc(C#Cc2ccc(C(=O)N3CC[C@@H](O)C3)cc2)cc1

IC50 ([1]; read-out: IC50): > 10 µM
Compound: O=C(c1ccc(C#Cc2ccc(Oc3ccccc3)cc2)cc1)N1CCC[C@@H](CO)C1

IC50 ([1]; read-out: IC50): 0.45 µM
Compound: [2H]C([2H])([2H])Oc1ccc(C#Cc2ccc(C(=O)N3CCC[C@@H](O)C3)c(F)c2)cc1

Compound: Clc1ccc(CN[C@H]2CCN(c3ncc(Br)cn3)C2)c(Cl)c1
Ratio IC50 [24]: 4

Activity [2]: 1.6%
IC50 ([1]; read-out: pIC50 (converted)): 2.75 µM
IC50 [3]: > 30 µM
Compound: COc1ccc(C#Cc2ccc(C(=O)N3CC4CCC(=O)C4C3)cc2)cc1 (stereo unspecified)

Activity [2]: 2%
IC50 ([1]; read-out: IC50): 0.65 µM
IC50 [3]: > 30 µM
Compound: COc1ccc(C#Cc2ccc(C(=O)N3CCC[C@@H](O)C3)cc2)cc1

IC50 ([1]; read-out: IC50): > 10 µM
Compound: COc1ccc(C#Cc2ccc(C(=O)N3CCC[C@@H](CO)C3)cc2)cc1F

IC50 ([1]; read-out: IC50): > 10 µM
Compound: O=C(c1ccc(C#Cc2ccc(O)cc2)cc1)N1CCC[C@@H](CO)C1
